Here are results for one compound from patent US20230053540A1, “TREATMENT OF LIVER INJURY” (Massachusetts Institute of Technology, priority 2019, published 2023).

Structures are written as SMILES.

For data set [1], the system named is mouse liver. Description: APAP acute liver injury in mice, histology/IHC (TUNEL, PCNA). It counts as in vivo. Conditions: 300 mg/kg APAP i.p. The procedure:
Mice were then used for isolation of primary hepatic cells for single cell RNA-sequencing or tissue harvest for further downstream analysis.
A portion of liver tissue was fixed in 10% neutral buffered formalin for 48 hrs and further processed to obtain paraffin blocks and 5 μm thick sections. A portion of liver tissue was frozen in optimal cutting temperature (OCT) medium and used to obtain 10 μm fresh frozen sections.
Histology was performed by the histology core at Beth Israel Deaconess Medical Center using standard procedures and automated workflow. Samples were processed and embedded following fixation in 10% neutral buffered formalin for 48 hrs. Samples were embedded in paraffin and sectioned at […]. Immunohistochemistry was performed on a Leica autostainer (Leica Biosystems) with enzyme treatment (1:1000) using standard protocols. The antibody used for assessment of cell proliferation was PCNA (Cell Signaling, Cat. 13110, 1:800), and cell death was ApopTag Peroxidase In Situ Apoptosis Detection Kit (Millipore, Cat. #S7100). Macrophages were stained using the anti-F4/80 (Cell Signaling, Cat. 70076, 1:500). Sections were then counterstained with hematoxylin, dehydrated, and film cover slipped. Four representative images were captured per slide. TUNEL-positive area, PCNA-positive cells, and F4/80-positive cells were measured and averaged across the four images for each sample using Fiji.

Data set [2] relates to hepatocytes. Briefly: Gene set analysis (piano) of composite DEG, APAP vs untreated. Further details: species or system mouse. The source says:
Shared and unique by injury model gene lists were assembled by combining DE results across all time points for each injury. Applicants ran differential expression using Wilcox test in the FindAllMarkers Seurat function between each treatment condition (A6, A24, A48, A96, PH3, PH48, PH120) individually and untreated (UT). […] A small number of genes were up at one time point, but down at another.
Applicants ran pathway analysis on the composite DE results using the piano R package. Reference gene sets were downloaded from MSigDB (Broad Institute). Applicants used geneSetStat=“fisher”, adjMethod=“fdr”, and signifMethod=“geneSampling”. Applicants then parsed the results to identify shared and unique reference gene sets for each injury. Any reference gene set with a q-value greater than 0.05 was discarded as insignificant. […] Selected reference gene set −log(q) are plotted in FIG. 20.

As to `CC(=O)Nc1ccc(O)cc1` [APAP, acetaminophen], in data set [1] (6 hrs post-APAP (A6)), the “histological analysis of liver” value is “pericentral necrosis”. Further, the histology of liver result in data set [1] (24 hrs post-APAP (A24)) is “persistent pericentral necrosis”. Besides, in data set [1] (PH ~70%), the “total cell loss (liver cell mass) after APAP exposure” value is on record as around 10%. Moreover, the “anti-oxidant response by gene set analysis (GSA)” value in data set [2] is “substantial anti-oxidant response”.
